Results on eight molecules are retold here after patent publication US20050267051A1, “Antineoplastic and anti-HIV conjugates of steroid acid and nucleosides” (priority 2003, published 2005).

One data set concerns MCF7. Briefly: Growth inhibition assay, MCF7. The following applies: 10 μg/ml; MCF7 breast carcinoma. In kind it is cell-based, human. An excerpt: (§1) Cell growth inhibitory activity against human lymphoblasts (H9 cells) for compounds (4), (5) and (6) is depicted in FIG. 1. […] Conjugate (4) was further tested against ddC resistant H9 cells (H9/ddC cells that have reduced thymidine and deoxycytidine kinase activities); HL60, HL60/araC (human promyclocytic leukemic cell lines, parental and araC resistant), H29, H29/FU (human colon adenocarcinomas, parental and FU resistant), MCF7 (human breast carcinoma) and BL5 (Burkitt lymphoma cell line). At 10 μg/ml, it produced 85-100% growth inhibition in all of these human tumor cell lines.
(§2) Growth inhibition assays were performed in triplicate by seeding 5×10^4 Cells/ml in 24-well plates (Costar). Test compounds were added, and the trypan blue-excluding cells were counted after 72 hrs of incubation at 37° C. IC50 values were calculated from growth inhibition curves as described in Agarwal, R. P., and Mian, A. Biochem. Pharmacol. 1991, 42, 905 and Agarwal, Ram P., Han, Tieran, Fernandez, Manilyn. Biochemical and Biophysical Research com in un ica lions. 1999, 262, 657.

A further data set concerns H9/ddC cells. Briefly: Growth inhibition assay, ddC resistant H9 cells. In kind it is cell-based, human. The settings on record: 10 μg/ml.
From the text: as §1, §2

The test system of data set [1] is H9 cells. Briefly: Growth inhibition (anti-growth) assay on H9 cells, trypan blue exclusion count. In kind it is cell-based, human. The settings on record: for IC50: Homo sapiens, H9.
From the text: Anti-growth activity on H-9 cells is summarized by IC50 data (drug concentration measured by […]g/ml needed to inhibit 50% of the cell growth), derived from dose-response curves.
as §1, §2

A further data set deals with HIV-1. Briefly: Anti-HIV assay with T4 lymphocytes (CEM-SS cell line), XTT, protection against HIV cytopathic effects. In kind it is cell-based. The settings on record: for Anti-HIV activity (in words): in vitro anti-HIV bioassays; for pEC50: read-out: EC50 (50% effective concentration against HIV cytopathic effects). An excerpt:
(§3) The ester conjugates were subjected to standard in vitro anti-HIV bioassays [see: with T4 lymphocytes (CEM-SS cell line) according to the standard assays described, for example in Bourinbaiar AS, Lee-Huang S. Contraception 1995; 51:319-22 and http://www.iaen.org/files.cgi/7014_Bourinbaiar.pdf. Drug efficacy (EC50) was obtained by adding HIV and AZT conjugate to the cell to measure protection of the drug against HIV-induced celldeath. The cytotoxicity (IC50) data was obtained from adding only the conjugate to the cell to measure cell death caused by the agent. The therapeutic index (TI) is the ratio IC50/EC50. […] These two active agents appear to have less cytotoxicity and weaker anti-HIV potency than AZT. […] This intriguing profile of conjugate (4) prompted further evaluations of its growth inhibition in comparison to (5) and (6).
(§4) The anti-HIV assay was carried out with T4 lymphocytes (CEM-SS cell line) through the following standard procedure. Agent is dissolved in dimethyl sulfoxide and diluted 1:100 in cell culture medium before preparing serial half-log 10 dilutions. T4 lymphocytes are added and after a brief interval HIV-1 is added, resulting in a 1:200 final dilution of the compound. Uninfected cells with the compound serve as a toxicity control, and infected and uninfected cells without the compound serve basic controls. Cultures are incubated at 37° C. in a 5% carbon dioxide atmosphere for 6 days. The tetrazolium salt, XTT, is added to all wells, and the cultures are incubated to allow formazan color development. Individual wells are analyzed spectrophotometrically to quantitate formazan production, and in addition are viewed microscopically for detection of viable cells and confirmation of protective activity.
(§5) Drug-treated virus-infected cells are compared with drug-treated non-infected cells and with other appropriate controls (untreated infected and untreated non-infected cells, drug-containing wells without cells, etc.) on the same plate. Data are reviewed in comparison with other tests done at the same time and a determination concerning activity is made (Table 1).
On the technique in general: Tetrazolium assays rely on reduction of a dye to a coloured formazan, in cell work by metabolically active cells.

The test system of data set [2] is T4 lymphocytes (CEM-SS cell line). Briefly: Cytotoxicity in uninfected CEM-SS cells (toxicity control of anti-HIV assay). In kind it is cell-based.
From the text: as §3, §4, §5

The subject of data set [3] is H9 cells. Briefly: Apoptosis assay, Annexin V-FITC and propidium iodide staining, flow cytometry. The class given is cell-based, human. The settings on record: 10 μg/ml, 48 hrs; FIG. 4. Here is the method:
In the experiments, fractions of cells in various stages of apoptotic death were assessed according to standard assays [see, e.g., http://www.blackwell-synergy.com/links/doi/10.1046/j.1365-2184.2003.00283.x/abs/; http://64.177.90.157/pfpc/Fluoride_Machalinski—2003.pdf and http://jpet.aspetjournals.org/cgi/content/full/310/1/126 by simultaneous Annexin V and propidium iodide staining using flow cytometry.
Apoptosis experiments were carried out by treating H9 Cells […] with compound 4 (10 μg/ml), AZT (10 μg/ml) or cholenic acid (10 μg/ml) for 48 hrs. Cells were collected by centrifugation, washed with growth medium, and stained with Annexin V-FITC and propidium iodide (apoptosis dilution kit; Sigma), according to the manufacturer's protocol, and the fluorescence was analyzed via flow cytometry.

The subject of the next data set is HL60/araC. Description: Growth inhibition assay, HL60/araC. The class given is cell-based, human. The following applies: 10 μg/ml, araC resistant.
From the text: as §1, §2

For another data set, the system named is H29/FU. Description: Growth inhibition assay, H29/FU. In kind it is cell-based, human. The settings on record: 10 μg/ml, FU resistant.
From the text: as §1, §2

The next data set relates to HL60. Briefly: Growth inhibition assay, HL60. In kind it is cell-based, human. The following applies: 10 μg/ml; HL60 promyelocytic leukemic, parental.
From the text: as §1, §2

Data set [4] in a line: Cytotoxicity in uninfected CEM-SS cells (toxicity control of anti-HIV assay). In kind it is cell-based. The following applies: human, uninfected CEM-SS cells (T4 lymphocytes); CEM-SS cell line, uninfected; average of two repeat experiments; read-out: IC50 (50% inhibitory concentration for cell growth), cytotoxicity.
From the text: as §3, §4, §5

Where [5] appears, read: H-9 cells, derived from dose-response curves, read-out: IC50 (drug concentration needed to inhibit 50% of the cell growth), anti-growth activity on H-9 cells.
The mark [6] stands for this setting: FIG. 1, 72 hrs incubation, read-out: IC50, cell growth inhibitory activity against human lymphoblasts (H9 cells).

pEC50, pIC50: −log10 of the molar value. In brackets after ≈: the same amount, converted by molar mass. Like-named read-outs stand apart in the source and are kept apart here.

Turning to “3′-Azido-3′-deoxythymidine-5′-[3β-acetyloxy-22,23-bisnor-5-cholenate] [compound 4]”, the growth inhibition in the data set on MCF7, with H9/ddC cells, in the data set with HL60/araC, in the data set on H29/FU and in the data set on HL60 was 85-100% throughout. In the data set with H9 cells [1] (5 μg/ml, 24 hrs exposure, FIG. 3), the “cytotoxicity after 24 hrs drug exposure” value is listed as “Substantially more cytotoxicity”. The “cytotoxicity after 72 hrs drug exposure” value in the data set on H9 cells [1] (5 μg/ml, 72 hrs exposure, FIG. 3) is given as “only gave a plateau”. Moreover, in the data set with H9 cells [1] (1 or 5 μg/ml, 4 hrs exposure, FIG. 3), the “cell growth inhibition after 4 hrs drug exposure” value is recorded as “did not produce any inhibition”. For the same molecule, the “cell growth inhibition after 8 hrs drug exposure” value in the data set with H9 cells [1] (1 or 5 μg/ml, 8 hrs incubation, FIG. 3) was 20-25%. Also, the “IC50, cell growth inhibitory activity against human lymphoblasts (H9 cells)” value in the data set with H9 cells [1] (FIG. 1, 72 hrs incubation) was about 2.5 µg/mL. For the same molecule, the “Inhibition of growth of H9 cells (in words)” value with H9 cells [1] (FIG. 2, 5 μg/ml for (4)) was “prevented growth of H9 cells almost completely”. Further, the “EC50 (50% effective concentration against HIV cytopathic effects)” value with HIV-1 (CEM-SS cell line, average of two repeat experiments) is “inactive”. The “Anti-HIV activity (in words)” value in the data set with HIV-1 is on record as “no anti-HIV activity”. The pIC50 in data set [2] (CEM-SS cell line, uninfected, average of two repeat experiments, read-out: IC50 (50% inhibitory concentration for cell growth), cytotoxicity) was 5.33. Besides, in [2] (CEM-SS cells, conjugate only), the “Cytotoxicity (in words)” value is recorded as “high cytotoxicity”. Moreover, in the data set with H9 cells [3], the “cells induced to apoptosis” value was about 90%.
As for `Cc1cn(C2C[C@H](N=[N+]=[N-])C(COC(=O)CCC(C)C3CCC4C5CCC6CCCCC6(C)C5CCC34C)O2)c(=O)[nH]c1=O` (stereo partly shown) [A, 5-Cholanic acid, 5′-(3′-azido-3′-deoxythymidinyl) ester], the IC50 in the data set with H9 cells [1] (setting [5]) was 30 µg/mL (≈ 49.2 µM).
Still for that read-out and setting: then `Cc1cn(C2C[C@H](N=[N+]=[N-])C(COC(=O)CCC(C)C3CCC4C5C(=O)CC6CC(=O)CCC6(C)C5CC(=O)C34C)O2)c(=O)[nH]c1=O` (stereo partly drawn) [B, 5β-Cholanic acid-3,7,12-trione, 5′-(3′-azido-3′-deoxythymidinyl) ester], with 30 µg/mL (≈ 46 µM).
`CC(=O)O[C@@H]1CCC2(C)C(CCC3C2CCC2(C)C(C(C)CCC(=O)OCC4OC(n5cc(C)c(=O)[nH]c5=O)C[C@@H]4N=[N+]=[N-])CCC32)C1` (stereo partly drawn) [C, 3α-Acetyloxy-5[…]-Cholanic acid, 5′-(3′-azido-3′-deoxythymidinyl) ester]: in the data set with H9 cells [1] (setting [5]), the IC50 is 4 µg/mL (≈ 5.99 µM).
Turning to `CC(=O)O[C@H]1CCC2(C)C(=CCC3C2CCC2(C)C(C(C)C(=O)OCC4C=CC(n5cc(C)c(=O)[nH]c5=O)O4)CCC32)C1` (stereo partly drawn) [D, 3β-Acetyloxy-23,24-bisnor-5-cholenic acid, 5′-(3′-deoxy-2′,3′-didehydrothymidinyl) ester], the IC50 with H9 cells [1] (setting [5]) worked out at 4 µg/mL (≈ 6.73 µM).
The same measure, in the same setting: under `CC(=O)O[C@H]1CCC2(C)C(=CCC3C2CCC2(C)C(C(C)C(=O)OCC4CCC(n5cc(C)c(=O)[nH]c5=O)O4)CCC32)C1` (stereo partly drawn) [E, 3β-Acetyloxy-23,24-bisnor-5-cholenic acid, 5′-(3′-deoxythymidinyl) ester] stands 3 µg/mL (≈ 5.03 µM).
For `COC(OC)C(=O)[C@H]1[C@H](C(=O)OC[C@H]2O[C@@H](n3cc(C)c(=O)[nH]c3=O)C[C@@H]2N=[N+]=[N-])C[C@H]2[C@@H]3CCC4=CC(=O)C=C[C@]4(C)[C@H]3[C@@H](O)C[C@@]21C` [compound 5, 3′-Azido-3′-deoxythymidine-5′-[21,21-dimethoxy-3,20-dioxo-11β-hydroxy-1,4-pregnadiene-16α-carboxylate]], the IC50 with H9 cells [1] (setting [6]) is about 12 µg/mL (≈ 17.6 µM). The pEC50 in the data set on HIV-1 (Human immunodeficiency virus 1, CEM-SS) was 7.46. In the data set on HIV-1, the “Anti-HIV activity (in words)” value was “active”.
As for `Cc1cn(C2C[C@H](N=[N+]=[N-])C(COC(=O)[C@@H]3OC(C)(C)O[C@@]34CCC3C5CCC6=CC(=O)C=CC6(C)C5C(O)CC34C)O2)c(=O)[nH]c1=O` (stereo partly drawn) [compound 6, 3′-Azido-3′-deoxythymidine-5′-[11β-hydroxy-17,20α-isopropylidenedioxy-3-oxo-1,4-pregnadiene-21-oate]], the IC50 in the data set on H9 cells [1] (setting [6]) was about 10 µg/mL (≈ 15 µM). Moreover, the pEC50 with HIV-1 (Human immunodeficiency virus 1, CEM-SS cell line, average of two repeat experiments) is 7.19. Moreover, in the data set with HIV-1, the “Anti-HIV activity (in words)” value is given as “active”. Further, the IC50 at 6 days in [4] stood at 12 µM.
